Measured values: patent US8299048B2, “Hexahydrocyclopentyl[f]indazole sulfonamides and derivatives thereof as selective glucocorticoid receptor modulators” (Merck Sharp & Dohme Corp., priority 2008, dated 2012)

Target: T1, human GR (Homo sapiens, UniProt P04150)
T1 sequence (P04150 1-777): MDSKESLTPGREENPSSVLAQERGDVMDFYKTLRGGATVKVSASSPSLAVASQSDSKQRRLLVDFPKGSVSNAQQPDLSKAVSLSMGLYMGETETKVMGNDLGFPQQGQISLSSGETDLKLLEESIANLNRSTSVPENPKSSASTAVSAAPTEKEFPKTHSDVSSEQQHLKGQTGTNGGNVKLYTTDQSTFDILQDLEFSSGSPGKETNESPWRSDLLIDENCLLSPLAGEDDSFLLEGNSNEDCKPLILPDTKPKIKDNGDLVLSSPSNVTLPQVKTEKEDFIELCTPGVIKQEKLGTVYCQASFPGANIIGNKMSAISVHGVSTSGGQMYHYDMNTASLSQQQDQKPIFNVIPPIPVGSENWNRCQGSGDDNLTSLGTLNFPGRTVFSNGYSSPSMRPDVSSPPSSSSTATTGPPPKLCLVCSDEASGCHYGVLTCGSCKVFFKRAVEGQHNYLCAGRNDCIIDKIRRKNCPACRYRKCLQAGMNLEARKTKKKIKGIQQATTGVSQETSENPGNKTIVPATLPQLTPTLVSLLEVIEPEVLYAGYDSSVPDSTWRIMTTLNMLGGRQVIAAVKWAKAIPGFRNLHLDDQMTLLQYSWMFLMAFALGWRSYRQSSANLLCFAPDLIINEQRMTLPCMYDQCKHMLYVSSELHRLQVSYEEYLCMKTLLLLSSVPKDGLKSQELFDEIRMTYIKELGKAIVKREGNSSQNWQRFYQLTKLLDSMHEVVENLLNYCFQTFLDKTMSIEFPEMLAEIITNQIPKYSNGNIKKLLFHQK
Test: Trans-Activation Modulation of Glucocorticoid Receptor (GRAMMER), MMTV-LUC reporter, agonist mode
Assay type: cell-based
Set-up: endogenous in cells
Settings: for Emax: A549, A549 cells, maximum activity, read-out: Transactivation A549 Cells GRAMMER Emax; for EC50: A549 cells, inflection point, read-out: Transactivation A549 Cells GRAMMER IP
In short: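 Readout is luciferase from a modified MMTV LTR promoter after 24 h compound exposure alongside 10 nM dexamethasone (100% activity reference), DMSO ≤1%.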

SMILES | Emax [%] | EC50 [nM]
COC(=O)c1ccccc1CS(=O)(=O)N(CCc1ccccc1F)C[C@H]1CCC2=Cc3c(cnn3-c3ccc(F)cc3)C[C@@]21C [Example 188, methyl 2-{[([2-(2-fluorophenyl)ethyl]{[(4αR,5S)-1-(4-fluorophenyl)-4α-methyl-1,4,4α,5,6,7-hexahydrocyclopenta[f]indazol-5-yl]methyl}amino)sulfonyl]methyl}benzoate] | 30.4 | 236
COC(=O)c1ccccc1S(=O)(=O)N(CCc1ccccc1F)C[C@H]1CCC2=Cc3c(cnn3-c3ccc(F)cc3)C[C@@]21C [Example 189, methyl 2-[([2-(2-fluorophenyl)ethyl]{[(4αR,5S)-1-(4-fluorophenyl)-4α-methyl-1,4,4α,5,6,7-hexahydrocyclopenta[f]indazol-5-yl]methyl}amino)sulfonyl]benzoate] | 65.3 | 152
C[C@]12Cc3cnn(-c4ccc(F)cc4)c3C=C1CC[C@@H]2CN(CCc1ccccc1F)S(=O)(=O)Cc1ccccc1C(N)=O [Example 190, 2-{[([2-(2-fluorophenyl)ethyl]{[(4αR,5S)-1-(4-fluorophenyl)-4α-methyl-1,4,4α,5,6,7-hexahydrocyclopenta[f]indazol-5-yl]methyl}amino)sulfonyl]methyl}benzamide] | 65.1 | 424
C[C@]12Cc3cnn(-c4ccc(F)cc4)c3C=C1CC[C@@H]2CN(CC1CCCO1)S(=O)(=O)c1ccc(C(N)=O)cc1 (stereo partly drawn) [Example 191, 4-{[{[(4αR,5S)-1-(4-fluorophenyl)-4α-methyl-1,4,4α,5,6,7-hexahydrocyclopenta[f]indazol-5-yl]methyl}(tetrahydrofuran-2-ylmethyl)amino]sulfonyl}benzamide] | 27.1 | 338
C[C@]12Cc3cnn(-c4ccc(F)cc4)c3C=C1CC[C@@H]2CN(Cc1ccccc1F)S(=O)(=O)c1cccc(C(N)=O)c1 [Example 192, 3-[((2-fluorobenzyl){[(4αR,5S)-1-(4-fluorophenyl)-4α-methyl-1,4,4α,5,6,7-hexahydrocyclopenta[f]indazol-5-yl]methyl}amino)sulfonyl]benzamide] | 4.3 | 170
C[C@]12Cc3cnn(-c4ccc(F)cc4)c3C=C1CC[C@@H]2CN(CCCc1ccccc1)S(=O)(=O)CC(F)(F)F [Example 193, 2,2,2-trifluoro-N-{[(4αR,5S)-1-(4-fluorophenyl)-4α-methyl-1,4,4α,5,6,7-hexahydrocyclopenta[f]indazol-5-yl]methyl}-N-(3-phenylpropyl)ethanesulfonamide] | 55.4 | 303
Cc1noc(C)c1S(=O)(=O)N(CCCc1ccccc1)C[C@H]1CCC2=Cc3c(cnn3-c3ccc(F)cc3)C[C@@]21C [Example 194, N-{[(4αR,5S)-1-(4-fluorophenyl)-4α-methyl-1,4,4α,5,6,7-hexahydrocyclopenta[f]indazol-5-yl]methyl}-3,5-dimethyl-N-(3-phenylpropyl)isoxazole-4-sulfonamide] | 41.9 | 517
C[C@]12Cc3cnn(-c4ccc(F)cc4)c3C=C1CC[C@@H]2CN(CCCc1ccccc1)S(=O)(=O)c1ccccc1F [Example 195, 2-fluoro-N-{[(4αR,5S)-1-(4-fluorophenyl)-4α-methyl-1,4,4α,5,6,7-hexahydrocyclopenta[f]indazol-5-yl]methyl}-N-(3-phenylpropyl)benzenesulfonamide] | 12.9 | 542
C[C@]12Cc3cnn(-c4ccc(F)cc4)c3C=C1CC[C@@H]2CN(CCc1ccccn1)S(=O)(=O)Cc1ccccc1C(N)=O [Example 196, 2-({[{[(4αR,5S)-1-(4-fluorophenyl)-4α-methyl-1,4,4α,5,6,7-hexahydrocyclopenta[f]indazol-5-yl]methyl}(2-pyridin-2-ylethyl)amino]sulfonyl}methyl)benzamide] | 36.6 | 552
CC([C@H]1CCC2=Cc3c(cnn3-c3ccc(F)cc3)C[C@@]21C)N(CCc1ccccn1)S(=O)(=O)Cc1cccnc1 (stereo partly drawn) [Example 197, N-{1-[(4αR)-1-(4-fluorophenyl)-4α-methyl-1,4,4α,5,6,7-hexahydrocyclopenta[f]indazol-5-yl]ethyl}-1-pyridin-3-yl-N-(2-pyridin-2-ylethyl)methanesulfonamide] | 43.7 | 769
C[C@]12Cc3cnn(-c4ccc(F)cc4)c3C=C1CC[C@@H]2CN(CCO)S(=O)(=O)Cc1ccccc1C(N)=O [Example 198, 2-({[{[(4αR,5S)-1-(4-fluorophenyl)-4α-methyl-1,4,4α,5,6,7-hexahydrocyclopenta[f]indazol-5-yl]methyl}(2-hydroxyethyl)amino]sulfonyl}methyl)benzamide] | 8.2 | 1230
CC(C)(O)CN(C[C@H]1CCC2=Cc3c(cnn3-c3ccc(F)cc3)C[C@@]21C)S(=O)(=O)c1ccccc1F [Example 199, 2-fluoro-N-{[(4αR,5S)-1-(4-fluorophenyl)-4α-methyl-1,4,4α,5,6,7-hexahydrocyclopenta[f]indazol-5-yl]methyl}-N-(2-hydroxy-2-methylpropyl)benzenesulfonamide] | 58.6 | 96.8
C[C@]12Cc3cnn(-c4ccc(F)cc4)c3C=C1CC[C@@H]2CN(CC1(O)CC1)S(=O)(=O)c1ccccc1F [Example 200, 2-fluoro-N-{[(4αR,5S)-1-(4-fluorophenyl)-4α-methyl-1,4,4α,5,6,7-hexahydrocyclopenta[f]indazol-5-yl]methyl}-N-[(1-hydroxycyclopropyl)methyl]benzenesulfonamide] | 57.5 | 47.9
C[C@]12Cc3cnn(-c4ccc(F)cc4)c3C=C1CC[C@@H]2CN(CC1(O)CCCCC1)S(=O)(=O)c1ccccc1F [Example 201, 2-fluoro-N-{[(4αR,5S)-1-(4-fluorophenyl)-4α-methyl-1,4,4α,5,6,7-hexahydrocyclopenta[f]indazol-5-yl]methyl}-N-[(1-hydroxycyclohexyl)methyl]benzenesulfonamide] | 47.8 | 88.4
